A short description of data set [1]: Determination of Efflux-Ratio (ER) in Caco-2 cells. The settings on record: human, Caco-2, pH 7.4. For orientation: Caco-2 cells form a polarised layer with tight junctions and transporters.
Data set [2] concerns the target T1, GIST430/654 cell line expressing mutated constitutively active cKIT receptor tyrosine kinase (Δ560-576 deletion and V654A point mutation) (Homo sapiens, UniProt P10721, DEL560-576/V654A).
T1 construct: endogenous in cells; host or cells: GIST430/654 cells
The experiment in a line: Cellular cKIT autophosphorylation (phospho-Y307-cKIT, Luminex bead assay) in GIST430/654 cells. It counts as cell-based. The conditions noted are these: compounds 45 min, read-out: GIST 430/654 IC50. In a few lines:
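GIST430 (Δ560-576) and imatinib-resistant GIST430/654 (plus V654A; grown with 100 nM imatinib) cells were plated in IMDM/15% FCS and treated next day with serially diluted compound for 45 min. Lysates were captured on anti-total-cKIT Luminex beads overnight at 4 °C and probed for phospho-Y307. IC50 was taken from percent of 0.3% DMSO control.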

A further data set has as its target T2, c-Kit(V654A) (Homo sapiens, UniProt P10721, V654A).
T2 construct: recombinant human c-Kit, amino acids 544-end containing the V654A mutation; GST (N)
The experiment in a line: c-Kit(V654A) assay (33P-ATP filter binding kinase assay). It counts as biochemical. The conditions noted are these: recombinant human c-Kit aa 544-end V654A, ATP 200 μM. In a few lines: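 Radiometric filter-binding read-out: substrate 33P incorporation counted by scintillation after P30 filtermat washes in 75 mM phosphoric acid and methanol. Enzyme: N-GST recombinant human c-Kit aa 544-end carrying V654A.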

A value given as a limit tells only on which side of the number the result lay.

Efflux ratio and IC50 data for 18 molecules are collected here from patent US12655142B2 (Merck Patent GmbH, priority 2019, dated 2026).

In general, efflux ratio refers to the permeability from basolateral to apical divided by that in the opposite direction, in the common usage.

T1 sequence (P10721 with tags, fused parts or gaps DEL560-576/V654A): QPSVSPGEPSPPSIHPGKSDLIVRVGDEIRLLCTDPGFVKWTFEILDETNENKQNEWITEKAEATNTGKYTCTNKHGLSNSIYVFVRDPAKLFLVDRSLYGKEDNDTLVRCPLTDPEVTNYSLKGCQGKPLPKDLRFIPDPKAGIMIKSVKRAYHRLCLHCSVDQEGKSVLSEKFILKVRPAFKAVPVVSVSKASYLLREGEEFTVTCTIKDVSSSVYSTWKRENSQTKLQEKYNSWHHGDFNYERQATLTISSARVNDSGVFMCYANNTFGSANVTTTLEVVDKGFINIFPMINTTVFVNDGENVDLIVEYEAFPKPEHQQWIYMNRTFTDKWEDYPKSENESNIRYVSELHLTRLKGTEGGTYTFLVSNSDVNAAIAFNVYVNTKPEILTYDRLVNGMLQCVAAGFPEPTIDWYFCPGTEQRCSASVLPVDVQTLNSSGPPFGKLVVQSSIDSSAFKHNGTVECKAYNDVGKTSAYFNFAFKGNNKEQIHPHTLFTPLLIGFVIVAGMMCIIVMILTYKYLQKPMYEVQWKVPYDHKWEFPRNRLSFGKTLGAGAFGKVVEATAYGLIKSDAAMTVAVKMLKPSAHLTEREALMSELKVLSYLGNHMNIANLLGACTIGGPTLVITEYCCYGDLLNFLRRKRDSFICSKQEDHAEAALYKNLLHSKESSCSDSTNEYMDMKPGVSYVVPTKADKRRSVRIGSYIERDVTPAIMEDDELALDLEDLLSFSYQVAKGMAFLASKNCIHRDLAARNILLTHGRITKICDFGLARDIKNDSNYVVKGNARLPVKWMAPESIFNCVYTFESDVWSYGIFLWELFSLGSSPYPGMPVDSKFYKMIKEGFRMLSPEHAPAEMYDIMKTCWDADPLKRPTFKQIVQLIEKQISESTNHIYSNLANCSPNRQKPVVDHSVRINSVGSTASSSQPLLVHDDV
T2 sequence (P10721 544-976 V654A): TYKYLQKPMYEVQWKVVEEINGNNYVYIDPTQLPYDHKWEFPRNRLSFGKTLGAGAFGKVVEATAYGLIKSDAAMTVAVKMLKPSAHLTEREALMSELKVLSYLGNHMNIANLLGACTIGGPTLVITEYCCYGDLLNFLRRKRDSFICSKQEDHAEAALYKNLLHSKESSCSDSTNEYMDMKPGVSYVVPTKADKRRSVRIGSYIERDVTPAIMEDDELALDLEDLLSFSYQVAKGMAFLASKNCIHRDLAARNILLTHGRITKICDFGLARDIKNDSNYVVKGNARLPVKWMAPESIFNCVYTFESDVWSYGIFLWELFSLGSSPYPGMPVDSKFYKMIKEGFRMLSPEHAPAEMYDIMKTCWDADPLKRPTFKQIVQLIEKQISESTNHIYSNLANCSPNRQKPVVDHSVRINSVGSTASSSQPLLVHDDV

As for `COc1ccn2c(-c3cc(NCc4ccc(-c5cnn(CC6CC6)c5)cc4)ncn3)cnc2c1` [A21, [4-(1-cyclopropylmethyl-1H-pyrazol-4-yl)-benzyl]-[6-(7-methoxy-imidazo[1,2-a]pyridin-3-yl)-pyrimidin-4-yl]-amine], the efflux ratio at 2 h, 1 μM in data set [1] was less than 15. Moreover, the values for the IC50 (in data set [2]; on c-Kit(V654A)) were 0.058 µM and 0.0048 µM, respectively.
The matching figures for `COc1ccn2c(-c3cc(NCc4ccc(-c5noc(C)n5)cc4)ncn3)cnc2c1` [A26, 6-{7-methoxyimidazo[1,2-a]pyridin-3-yl}-N-{[4-(5-methyl-1,2,4-oxadiazol-3-yl)phenyl]methyl}pyrimidin-4-amine]: less than 15, 0.13 µM and 0.0086 µM.
As for `COc1ccn2c(-c3cc(NCc4ccc(-c5cnn(C)n5)cc4)ncn3)cnc2c1` [A32, [6-(7-methoxy-imidazo[1,2-a]pyridin-3-yl)-pyrimidin-4-yl]-[4-(2-methyl-2H-[1,2,3]triazol-4-yl)-benzyl]-amine], the efflux ratio at 2 h, 1 μM in data set [1] is less than 15. For the same molecule, the results for the IC50 (in data set [2]; at c-Kit(V654A)) were 0.078 µM and 0.0044 µM, respectively.
For the molecule `COc1ccn2c(-c3cc(NCc4ccc(-c5cnn(C)c5)s4)ncn3)cnc2c1` [A36, 6-{7-methoxyimidazo[1,2-a]pyridin-3-yl}-N-{[5-(1-methyl-1H-pyrazol-4-yl)thiophen-2-yl]methyl}pyrimidin-4-amine], the efflux ratio at 2 h, 1 μM in data set [1] is less than 15. The IC50 in data set [2] was found to be 0.14 µM; on c-Kit(V654A), 0.0042 µM.
Regarding `COCCn1ncc(-c2ccc(CNc3cc(-c4cnc5cc(OC)ccn45)ncn3)cc2)n1` [A46, N-({4-[2-(2-methoxyethyl)-2H-1,2,3-triazol-4-yl]phenyl}methyl)-6-{7-methoxyimidazo[1,2-a]pyridin-3-yl}pyrimidin-4-amine], the efflux ratio at 2 h, 1 μM in data set [1] was less than 15. Besides, the IC50 is 0.095 µM in data set [2] and 0.0064 µM on c-Kit(V654A).
In the case of `COc1ccn2c(-c3cc(NCc4ccc(-c5cocn5)cc4)ncn3)cnc2c1` [A51, [6-(7-methoxy-imidazo[1,2-a]pyridin-3-yl)-pyrimidin-4-yl]-(4-oxazol-4-yl-benzyl)-amine], the efflux ratio at 2 h, 1 μM in data set [1] was less than 15. For the same molecule, the values for the IC50 (in data set [2]; on c-Kit(V654A)) were 0.053 µM and 0.0016 µM, respectively.
The matching figures for `CN1CCN(CCOc2ccn3c(-c4cc(NCc5ccc(-c6cnn(C)c6)cc5)ncn4)cnc3c2)CC1` [A61, (6-{7-[2-(4-methyl-piperazin-1-yl)-ethoxy]-imidazo[1,2-a]pyridin-3-yl}-pyrimidin-4-yl)-[4-(1-methyl-1H-pyrazol-4-yl)-benzyl]-amine]: less than 15, 0.034 µM and 0.0065 µM.
In the case of `CN1CCC(Oc2ccn3c(-c4cc(NCc5ccc(-c6cnn(C)c6)cc5)ncn4)cnc3c2)CC1` [A63, {6-[7-(1-methyl-piperidin-4-yloxy)-imidazo[1,2-a]pyridin-3-yl]-pyrimidin-4-yl}-[4-(1-methyl-1H-pyrazol-4-yl)-benzyl]-amine], the efflux ratio at 2 h, 1 μM in data set [1] was less than 15. The IC50 in data set [2] is 0.084 µM; on c-Kit(V654A), 0.012 µM.
`Cn1cc(-c2ccc(CNc3cc(-c4cnc5cc(OCC(C)(C)O)ccn45)ncn3)cc2)cn1` [A64, 2-methyl-1-(3-{6-[4-(1-methyl-1H-pyrazol-4-yl)-benzylamino]-pyrimidin-4-yl}-imidazo[1,2-a]pyridin-7-yloxy)-propan-2-ol]: the efflux ratio at 2 h, 1 μM in data set [1] was less than 15. The IC50 came to 0.084 µM in data set [2] and 0.0067 µM on c-Kit(V654A).
The matching figures for `Cn1cc(-c2ccc(CNc3cc(-c4cnc5cc(OCCN6CCN(C7COC7)CC6)ccn45)ncn3)cc2)cn1` [A65, [4-(1-methyl-1H-pyrazol-4-yl)-benzyl]-(6-{7-[2-(4-oxetan-3-yl-piperazin-1-yl)-ethoxy]-imidazo[1,2-a]pyridin-3-yl}-pyrimidin-4-yl)-amine]: less than 15, 0.046 µM and 0.011 µM.
Taken in the same sequence, the figures for `CN1CCN(CCOc2ccn3c(-c4cc(NCc5ccc(-n6ccnn6)cc5)ncn4)cnc3c2)CC1` [A67, (6-{7-[2-(4-methyl-piperazin-1-yl)-ethoxy]-imidazo[1,2-a]pyridin-3-yl}-pyrimidin-4-yl)-(4-[1,2,3]triazol-1-yl-benzyl)-amine] were greater than 50, 0.065 µM and 0.0048 µM.
Regarding `COCCOc1ccn2c(-c3cc(NCc4ccc(-c5cnn(C)n5)cc4)ncn3)cnc2c1` [A71, {6-[7-(2-methoxy-ethoxy)-imidazo[1,2-a]pyridin-3-yl]-pyrimidin-4-yl}-[4-(2-methyl-2H-[1,2,3]triazol-4-yl)-benzyl]-amine], the efflux ratio at 2 h, 1 μM in data set [1] was less than 15. Moreover, the IC50 in data set [2] was 0.045 µM; on c-Kit(V654A), 0.0046 µM.
On to `Cn1cc(-c2ccc(CNc3cc(-c4cnc5cc(OCCCN6CCOCC6)ccn45)ncn3)cc2)cn1` [A74, [4-(1-methyl-1H-pyrazol-4-yl)-benzyl]-{6-[7-(3-morpholin-4-yl-propoxy)-imidazo[1,2-a]pyridin-3-yl]-pyrimidin-4-yl}-amine], for which, in data set [1], the efflux ratio at 2 h, 1 μM was less than 15. Also, the IC50 in data set [2] was 0.049 µM; on c-Kit(V654A), 0.0048 µM.
As to `Cn1cc(-c2ccc(CNc3cc(-c4cnc5cc(OCCN6CCC(F)(F)C6)ccn45)ncn3)cc2)cn1` [A77, 6-{7-[2-(3,3-difluoropyrrolidin-1-yl)ethoxy]imidazo[1,2-a]pyridin-3-yl}-N-{[4-(1-methyl-1H-pyrazol-4-yl)phenyl]methyl}pyrimidin-4-amine], in data set [1], the efflux ratio at 2 h, 1 μM was less than 15. Further, the results for the IC50 (in data set [2]; at c-Kit(V654A)) were 0.04 µM and 0.014 µM, respectively.
Turning to `CN1CCC(COc2ccn3c(-c4cc(NCc5ccc(-n6ccnn6)cc5)ncn4)cnc3c2)CC1` [A80, {6-[7-(1-methyl-piperidin-4-ylmethoxy)-imidazo[1,2-a]pyridin-3-yl]-pyrimidin-4-yl}-(4-[1,2,3]triazol-1-yl-benzyl)-amine], the efflux ratio at 2 h, 1 μM in data set [1] is greater than 50. In addition, the IC50 in data set [2] was found to be 0.038 µM; at c-Kit(V654A), 0.0034 µM.
The matching figures for `Cn1cc(-c2ccc(CNc3cc(-c4cnc5cc(OCC(C)(C)CN6CCCC6)ccn45)ncn3)cc2)cn1` [A91, {6-[7-(2,2-dimethyl-3-pyrrolidin-1-yl-propoxy)-imidazo[1,2-a]pyridin-3-yl]-pyrimidin-4-yl}-[4-(1-methyl-1H-pyrazol-4-yl)-benzyl]-amine]: less than 15, 0.076 µM and 0.0086 µM.
On to `Cn1cc(-c2ccc(CNc3cc(-c4cnc5cc(OCC(C)(C)N)ccn45)ncn3)cc2)cn1` [A104, {6-[7-(2-amino-2-methyl-propoxy)-imidazo[1,2-a]pyridin-3-yl]-pyrimidin-4-yl}-[4-(1-methyl-1H-pyrazol-4-yl)-benzyl]-amine], for which, in data set [1], the efflux ratio at 2 h, 1 μM fell in the range of 15 to 50. Besides, the IC50 turned out to be 0.17 µM in data set [2] and 0.007 µM on c-Kit(V654A).
The matching figures for `Cn1cc(-c2ccc(CNc3cc(-c4cnc5cc(OCCN6CC7(COC7)C6)ccn45)ncn3)cc2)cn1` [A114, [4-(1-methyl-1H-pyrazol-4-yl)-benzyl]-(6-{7-[2-(2-oxa-6-aza-spiro[3.3]hept-6-yl)-ethoxy]-imidazo[1,2-a]pyridin-3-yl}-pyrimidin-4-yl)-amine]: 15 to 50, 0.086 µM and 0.0094 µM.
